From patent publication US10087171B2, “Crystalline forms of cadazolid” (ACTELION PHARMACEUTICALS LTD, priority 2016, dated 2018)

Columns and labels:
Assay type in all cases: physicochemical
[1] = Gravimetric water vapor sorption analysis GVS1 at 25° C.; conditions: for hysteresis in GVS: 0% to 95% r.h.
Experimental: GVS1: Projekt Messtechnik SPS 11-100n water vapor sorption analyzer. The samples are placed in aluminum crucibles on top of a microbalance. They are equilibrated at 25° C. and 50% r.h. and are then subjected to a pre-defined humidity program at 25° C. in the order 50-0-95-50% r.h. A scanning rate of r.h.=5%/h is used and ‘isohumid’ equilibration periods are included at the extreme values.

[2] = Suspension equilibration experiments
Experimental: 27 mg of cadazolid in form A and 25 mg of cadazolid in form C (obtainable as described in Example 3) are suspended in 1 mL H2O, treated for 5 min in an ultrasound bath and agitated at 25° C. The solid is filtered off after 5 days and analyzed. The obtained material is cadazolid in form B.
The following suspension equilibration experiments are performed in organic solvent (mixture of methanol and dichloromethane) and in water:
26 mg of cadazolid in form A and 25 mg of cadazolid in form C are suspended in 1 mL MeOH/CH2Cl21:3 and agitated at 25° C. The solid is filtered off after 5 days and is cadazolid in form A.
27 mg of cadazolid in form A and 26 mg of cadazolid in form C are suspended in 1 mL MeOH/CH2Cl2 1:3 and agitated at 5° C. for 2 days. Some solid is isolated by drying on a filter paper and consists of cadazolid in form A.
29 mg of cadazolid in form A and 26 mg of cadazolid in form C are suspended in 1 mL H2O, treated for 5 min in an ultrasound bath and agitated at 5° C. for 2 days. Some solid is isolated by drying on filter paper and consists of cadazolid in form B.

[3] = Relative thermodynamic stability deduced from melting points and melting enthalpies; conditions: at room temperature
Experimental: DSC data are collected on a Perkin Elmer DSC 7. The instrument is calibrated for energy and temperature using certified indium. Samples are sealed in hermetically closed gold crucibles under N2, heating rates of 10° C./min or 100° C./min, scan from −50° C. to variable end temperatures. Peak temperatures are reported for melting points.
The relative thermodynamic stability of polymorphic forms can be deduced from their melting points and melting enthalpies (L. Yu, Journal of Pharmaceutical Sciences 84 (1995) 966-974). These values are summarized in the Table 6 below for form A and C of cadazolid: […]

[4] = Gravimetric water vapor sorption analysis GVS2 at 25° C.
From the text: GVS2: Surface Measurement Systems Ltd. DVS-1 water vapor sorption analyzer. The sample is placed in a Pt pan suspended on a micro balance and is exposed to a N2 flow with 95% r.h. at the beginning and then decreasing with a constant rate of 5%/h.

[5] = MeOH/CH2Cl2 1:3, 25° C., 5 days

water content of the solid at 40% r.h. [1] | water content of the solid at 95% r.h. [1] | solid form obtained after suspension equilibration of form A and form C together ([2]; H2O, 5° C., 2 days) | solid form obtained after suspension equilibration of form A and form C together ([2]; H2O, 25° C., 5 days) | solid form obtained after suspension equilibration of form A and form C together ([2]; MeOH/CH2Cl2 1:3, 5° C., 2 days) | solid form obtained after suspension equilibration of form A and form C together [2, 5] | maximum difference in water content between 0% and 95% r.h. [1] | hysteresis in GVS [1] | relative thermodynamic stability of polymorphic forms A and C [3] | solid form after GVS (post GVS XRPD) [1] | weight increase between 0% and 95% r.h. [1] | weight increase between 0% and 95% r.h. as equivalents H2O [1] | hygroscopicity classification ([1]; 40% to 95% r.h., adapted methodology, classification according to Pharm. Eur 8.0, section 5.11) | SMILES | relative thermodynamic stability concluded from suspension equilibration and GVS2 data ([2]; at 25° C., both at low and high relative humidity) | continuous weight loss during 6 h equilibration at 95% r.h. [4] | r.h. at which the water content of form A is reached ([4]; decreasing r.h.) | additional, accelerated weight loss upon lowering the r.h. ([4]; r.h. lowered at a rate of 5%/h)
0.33% | 2.52% | form B | form B | form A | form A | – | – | – | – | – | – | – | O=C(O)c1cn(C2CC2)c2cc(N3CCC(O)(COc4ccc(N5C[C@H](CO)OC5=O)cc4F)CC3)c(F)cc2c1=O [crystalline form C, 1-cyclopropyl-6-fluoro-7-{4-[2-fluoro-4-((R)-5-hydroxymethyl-2-oxo-oxazolidin-3-yl)-phenoxymethyl]-4-hydroxy-piperidin-1-yl}-4-oxo-1,4-dihydro-quinoline-3-carboxylic acid] | – | – | – | –
0.81% | 1.81% | form B | form B | form A | form A | ~0.5 mol/mol | No hysteresis | more thermodynamically stable form | – | – | – | – | O=C(O)c1cn(C2CC2)c2cc(N3CCC(O)(COc4ccc(N5C[C@H](CO)OC5=O)cc4F)CC3)c(F)cc2c1=O [crystalline form A, 1-cyclopropyl-6-fluoro-7-{4-[2-fluoro-4-((R)-5-hydroxymethyl-2-oxo-oxazolidin-3-yl)-phenoxymethyl]-4-hydroxy-piperidin-1-yl}-4-oxo-1,4-dihydro-quinoline-3-carboxylic acid] | thermodynamically more stable than form C | – | – | –
– | – | – | – | – | – | – | – | – | – | – | – | – | O=C(O)c1cn(C2CC2)c2cc(N3CCC(O)(COc4ccc(N5C[C@H](CO)OC5=O)cc4F)CC3)c(F)cc2c1=O [crystalline form B, 1-cyclopropyl-6-fluoro-7-{4-[2-fluoro-4-((R)-5-hydroxymethyl-2-oxo-oxazolidin-3-yl)-phenoxymethyl]-4-hydroxy-piperidin-1-yl}-4-oxo-1,4-dihydro-quinoline-3-carboxylic acid] | – | 30% during 6 h equilibration at 95% r.h. is | the r.h. at a rate of 5%/h. At 80% r.h., the water | loss of approx. 15% is observed upon lowering
1.8% | 7.17% | – | – | – | – | – | 95% r.h. with a significant hysteresis | – | amorphous as tested by a post GVS | A weight increase of about 7% (circa | 2.3 equivalents H2O) between 0% and | considered as being hygroscopic (adapted | O=C(O)c1cn(C2CC2)c2cc(N3CCC(O)(COc4ccc(N5C[C@H](CO)OC5=O)cc4F)CC3)c(F)cc2c1=O [amorphous state, 1-cyclopropyl-6-fluoro-7-{4-[2-fluoro-4-((R)-5-hydroxymethyl-2-oxo-oxazolidin-3-yl)-phenoxymethyl]-4-hydroxy-piperidin-1-yl}-4-oxo-1,4-dihydro-quinoline-3-carboxylic acid] | – | – | – | –
